The values below come from article PMC9282638, “A Suite of Activity-Based Probes To Dissect the KLK Activome in Drug-Resistant Prostate Cancer” (Journal of the American Chemical Society, 2021).

One data set relates to KLK2, KLK3, and KLK14. Put plainly: Streptavidin blotting of LNCaP-K14 conditioned media after treatment with biotinylated ABPs. It counts as biochemical, human. The following applies: CM of LNCaP-K14 cells, 10 nM DHT and 200 nM Dox; 1 h; concentration-dependent labeling. Here is the method: With ABPs for KLK2, KLK3, and KLK14 in hand, we next addressed selective readouts of KLK activities in a complex biological system. Compounds 20, 31, and 39 were incubated with CM obtained from LNCaP-K14 cells, in which KLK14 expression has been placed under the control of a doxycycline-inducible promoter, stimulated with 10 nM DHT and 200 nM doxycycline (Dox).[15] […] In line with previous reports KLK14 appears as a double band due to protein glycosylation.[15],[39] Selective covalent modification of KLK2, KLK3, and KLK14 by 31, 20, and 39, respectively, was confirmed by streptavidin enrichment and immunoblotting (Figures S19 and S20). In the following experiments, biotinylated ABPs (bABPs) 31, 20, and 39 are named KLK2_bABP, KLK3_bABP, and KLK14_bABP, respectively.
FBS) were seeded onto the bone matrix. As a control the same number of LNCaP cells were seeded in a T175 plate lacking osteoblast cells. After 12 h, the media was aspirated, and the co-culture was incubated with serum-free RPMI media (0 % FBS and phenol red-free) for a further 48 h. After 48 h the media was collected, passed through a 0.2 μm syringe filter and stored at – 80 °C until needed. Indirect Co-culture – After 6 weeks, the media was aspirated, and the differentiated osteoblasts were incubated with serum-free RPMI media (0 % FBS and phenol red-free) for a further 48 h. After 48 h the media was collected, passed through a 0.2 μm syringe filter and then added to a T175 plate of LNCaP cells grown to 80 % confluency and hormone starved for 24 h in RPMI media supplemented with 5 % charcoal stripped FBS. […]
The protein concentration of the homogenate was measured using the DC Protein Assay (BioRad), following the manufacturer’s instructions. […]
Preparation of conditioned media: Samples of conditioned media were removed from – 80 °C storage and concentrated by centrifugation (3000 g, 10 °C) in a 3 KDa molecular weight cut-off spin filter (Amicon) for approximately 3 h. […] The protein concentration of the media was measured using the DC Protein Assay (BioRad), following the manufacturer’s instructions. […]

The next data set deals with LNCaP-K14 cells. It counts as cell-based, human. Conditions: for cytotoxicity: 10 μM, 96 h time period; for effect on proliferation (cell confluency): Figure S27. From the text: Prior to the establishment of bone metastases circulating PCa cells must first enter the bone microenvironment by migrating across the sinusoidal wall.[54] We have previously shown that increased KLK14 activity drives PCa cell migration and colonization of mineralized bone matrices.[15] However, the specific contributions of the KLK activome (KLK2, KLK3, and KLK14) toward PCa cell migration are yet to be elucidated. […] We then assessed the migratory capacity of LNCaP-K14 cells using a transwell assay (see Figure S28 for standard curve).
proliferation of LNCaP-K14 cells. Cell confluency was monitored by real-time imaging using
an Incucyte S3 system (Essen Bioscience).
(1 picture or pasted object on this page, not shown here)

The next data set addresses T1, KLK14 (Homo sapiens, UniProt Q9P0G3).
T1 construct: purchased R&D Systems
T1 sequence (Q9P0G3 25-251): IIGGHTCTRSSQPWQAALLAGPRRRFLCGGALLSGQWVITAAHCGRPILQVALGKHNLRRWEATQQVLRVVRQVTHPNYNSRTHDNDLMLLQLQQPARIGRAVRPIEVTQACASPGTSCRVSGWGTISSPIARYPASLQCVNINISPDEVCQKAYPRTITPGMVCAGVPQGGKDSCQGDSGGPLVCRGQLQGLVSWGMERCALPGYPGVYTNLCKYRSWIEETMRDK
Put plainly: Determination of kinact/KI, fluorogenic substrate kinetic assay. It is filed as biochemical. The following applies: for kinact/KI: mean ± SEM (N = 3).

The kinact/KI is the second-order rate constant of inactivation.

In the case of `CCC[C@H](NC(=O)[C@H](CCC(N)=O)NC(=O)[C@H](CC(N)=O)NC(=O)CCCCCNC(=O)CCCC[C@@H]1SC[C@@H]2NC(=O)N[C@@H]21)C(=O)NC(c1ccc(C(N)=O)cc1)P(=O)(Oc1ccccc1)Oc1ccccc1` (stereo partly shown) [compound 20], the “targets labeled (probe selectivity)” value with KLK2, KLK3, and KLK14 is on record as “single target”. Moreover, in the data set on LNCaP-K14 cells, the cytotoxicity result is on record as “no cytotoxicity” and the “effect on proliferation (cell confluency)” value (“effect on proliferation” for short) is recorded as “no significant effect”.
With `CC(C)(C)C(NC(=O)CCCCCNC(=O)CCCCC1SCC2NC(=O)NC21)C(=O)NC(CCN)C(=O)NC(Cc1ccc(O)cc1)C(=O)NC(c1ccc(NC(=N)N)cc1)P(=O)(Oc1ccccc1)Oc1ccccc1` (stereo not drawn) [compound 31, Tle-Dab-Tyr-Arg], the “targets labeled (probe selectivity)” value in the data set with KLK2, KLK3, and KLK14 is “single target”. The kinact/KI on KLK14 (KLK2 probe optimization series) amounted to 94 ± 7 M⁻¹ s⁻¹. In the data set with LNCaP-K14 cells, the cytotoxicity entry is reported as “no cytotoxicity” and the “effect on proliferation” value is given as “no significant effect”.
As to `CCC(NC(=O)C(CCN)NC(=O)C(Cc1ccc2ccccc2c1)NC(=O)CCCCCNC(=O)CCCCC1SCC2NC(=O)NC21)C(=O)NC(c1ccc(NC(=N)N)cc1)P(=O)(Oc1ccccc1)Oc1ccccc1` (stereo not drawn) [compound 39, 2Nal-Dab-Abu-Arg], in the data set on KLK2, KLK3, and KLK14, the “targets labeled (probe selectivity)” value is recorded as “single target”. The “selectivity (fold-change)” value on KLK14 (KLK14 probe optimization series, KLK14 over KLK2) was 220 fold. Also, the kinact/KI on KLK14 (KLK14 probe optimization series) is 44500 ± 1980 M⁻¹ s⁻¹. In addition, the “fold higher potency toward KLK14” value at KLK14 (relative to compound 32) is reported as 80 fold. Further, in the data set on LNCaP-K14 cells, the cytotoxicity entry was “no cytotoxicity” and the “effect on proliferation” value was “no significant effect”.
